# Conditions: buffer; pH 7.4; 200.0 µM
row,Compound,solubility kinetic
1,CN(C(=O)CSc1nnc(C2CC2)n1C1CC1)C1(C#N)CCCCC1,> 53.9 µg/mL
2,CCC(=Nc1ccccc1N)c1c(O)[nH]c(=O)[nH]c1=O,5.6 µg/mL
3,CC(=O)C1=C(O)C(=O)N(c2ccc(O)cc2)C1c1ccc(Cl)cc1 (stereo not drawn),42.6 µg/mL
4,O=C(Nc1ccc2oc(-c3ccncc3)nc2c1)c1ccco1,12.7 µg/mL
5,Cc1ccc(C)c(NC(=O)c2cc(C)nc3ccccc23)c1,33.5 µg/mL
6,COc1ccc2oc(=O)c(C(=O)Nc3ccccc3C)cc2c1,2.3 µg/mL
7,Cc1cc(Cl)ccc1OCCCC(=O)NCc1ccccn1,> 47.8 µg/mL
8,O=S(=O)(NCCCN1CCOCC1)c1ccc(Cl)s1,48.4 µg/mL
9,O=C1NCCO1,> 13.1 µg/mL
10,CCCC12CN3CC(C)(CN(C1)C3c1ccco1)C2=O (stereo not drawn),38.9 µg/mL
11,O=[N+]([O-])c1ccc(Cl)cc1NCc1cccnc1,> 39.6 µg/mL
12,COC(=O)/C=C1\SC(=NC(=O)c2ccc(-c3ccccc3)cc2)NC1=O,2.6 µg/mL
13,CC(=O)c1cc(C(C)=O)c(C)[n+](C)c1C.[O-][Cl+3]([O-])([O-])[O-],41.5 µg/mL
14,CCOc1ccc(/C=C2\SC(=O)N(c3ccc(O)cc3)C2=O)cc1OC,< 0.8 µg/mL
15,Cc1ccc(NC2CCCN(C(=O)c3cccnc3)C2)cc1C (stereo not drawn),> 46.4 µg/mL
16,Cc1cc(C)nc(NC(=O)c2ccc(Cl)c([N+](=O)[O-])c2)n1,22.1 µg/mL
17,Nc1nonc1C(=O)NCCNC(=O)c1cccc(Cl)c1,45.8 µg/mL
18,O=C(COc1ccccc1)Nc1ccc(F)cc1,> 36.8 µg/mL
19,CC(C)[C@H](NC(=O)c1ccccc1)C(=O)OCC(=O)NCC1CCCO1 (stereo partly drawn),> 54.4 µg/mL
20,Cc1cc(C)c(O)c(NC(=S)NC(=O)Cc2ccccc2)c1,3.9 µg/mL
21,N#CC1(NC(=O)COC(=O)c2nccnc2N)CCCCC1,> 45.5 µg/mL
22,Cc1c(Cl)cccc1NC(=O)CCCN1C(=O)c2cccnc2C1=O,39.5 µg/mL
23,CNc1ccc(Br)cc1C(O)c1ccccc1 (stereo not drawn),34.7 µg/mL
24,O=C(CSc1ccccn1)Nc1ccc2c(c1)OCO2,> 43.2 µg/mL

row,Compound,solubility kinetic
1,COc1ccc(C(=O)Nc2cc([N+](=O)[O-])ccc2N2CCCC2)cc1,2.6 µg/mL
2,O=C1CSc2ccc(C(=O)NCc3ccccn3)cc2N1,> 44.9 µg/mL
3,O=C(COc1ccccc1)N1CCN(c2ncccn2)CC1,> 44.8 µg/mL
4,Fc1ccc(-c2csc(-c3ccccn3)n2)cc1F,< 0.3 µg/mL
5,Nc1ccc(-c2nc3ccccc3s2)cn1,17.7 µg/mL
6,O/N=C\c1ccc2noc(-c3ccc(Cl)cc3)c2c1,< 0.3 µg/mL
7,Cc1cc(OC(=O)c2ccc(OC(C)C)cc2)c([N+](=O)[O-])c(=O)[nH]1,> 49.8 µg/mL
8,Cc1cccc(NC(=O)C(C)Sc2nc3nc(C)cc(C)n3n2)c1 (stereo not drawn),> 51.2 µg/mL
9,C/C(=N\Nc1nc(C)cc(C)n1)c1ccc(N2CCOCC2)cc1,> 48.8 µg/mL
10,COc1ccc(C(=O)NC(=S)N(C)C2CCCCC2)cc1Br,0.7 µg/mL
11,O=C(c1ccc(F)cc1F)N1CCN(c2ccccn2)CC1,> 45.5 µg/mL
12,O=C(Cc1ccccc1)NCc1cccnc1,33.8 µg/mL
13,O=C(Nc1ccccc1N1CCCCC1)c1cccc(Cl)c1,< 0.3 µg/mL
14,Cc1cc(C(=O)NC2CCCCC2)on1,> 31.2 µg/mL
15,COc1cccc(NC(=O)NC2CCCCCCC2)c1,5.2 µg/mL
16,O=C(COC(=O)c1cccc(S(=O)(=O)N2CCOCC2)c1)NCc1ccc2c(c1)OCO2,66.8 µg/mL
17,CC(C)COP(=O)(c1ccc(N(C)C)cc1)C(O)c1ccccc1 (stereo not drawn),> 52.1 µg/mL
18,CC(NC(=O)c1ccc2ccccc2n1)c1ccccc1 (stereo not drawn),18.9 µg/mL
19,Cc1cccc(C(=O)NC2CC3CCCC(C2)N3Cc2ccccc2)c1 (stereo not drawn),11.1 µg/mL
20,CN1CCCC(OC(=O)c2ccc(C#N)cc2)C1.Cl (stereo not drawn),> 42.1 µg/mL
21,O=C(CN1C(=O)c2ccccc2S1(=O)=O)NCc1cccs1,22.2 µg/mL
22,CCN(CC(=O)NC(C)C)C(=O)c1cc(S(=O)(=O)N2CCCCC2)ccc1N1CCCCC1,10.7 µg/mL
23,COC(=O)Nc1sc2c(c1C(N)=O)CCC(C)C2 (stereo not drawn),5 µg/mL
24,CCCC(=O)Nc1cc2c3c(c1)CCN3C(=O)CC2,> 38.7 µg/mL

row,Compound,solubility kinetic
1,CC(=O)c1cccc(NC(=O)Nc2ccc3c(c2)CCC3)c1,0.3 µg/mL
2,COc1ccc(NC(=O)Cc2ccc(Cl)cc2Cl)cn1,33.8 µg/mL
3,CCN(CC)S(=O)(=O)c1ccc(N2CCOCC2)c(NC(=O)c2[nH]c(C)c(C(C)=O)c2C)c1,3.9 µg/mL
4,c1ccc(OCCCCN2CCCCC2)cc1,29.6 µg/mL
5,Oc1ccccc1N1CCN(c2ccc3ccccc3n2)CC1,4.2 µg/mL
6,O=C(CCNC(=O)c1ccccc1Cl)NC1=NCCS1,42.8 µg/mL
7,CCn1c(=O)c([N+](=O)[O-])c(NCc2ccco2)c2ccccc21,0.6 µg/mL
8,CC1(C)Cc2nc(NC3CCCCC3)c(C#N)cc2CO1,1.7 µg/mL
9,Cc1ccc(C)c2nc(Cl)c(C#N)cc12,< 0.2 µg/mL
10,N#Cc1ccccc1OCC(=O)OCC(=O)c1c[nH]c2ccccc12,6.4 µg/mL
11,COc1ccc(-c2cc(C(=O)OCC(=O)N3CCCCC3)c3ccccc3n2)cc1OC,13.8 µg/mL
12,CN(C)C(=O)CN1C(=O)c2cccc3cccc1c23,33.1 µg/mL
13,CN1C(=O)C(CCC(N)=O)NC1=S (stereo not drawn),29.1 µg/mL
14,CCCn1c(N)c(C(=O)CN2CCN(S(=O)(=O)c3cccc(Cl)c3)CC2)c(=O)[nH]c1=O,> 70.5 µg/mL
15,COC(=O)CSc1ncc(S(=O)(=O)c2ccccc2)c(=O)[nH]1,> 51.1 µg/mL
16,CCCN1CCN(CC(=O)Nc2nc3ccccc3s2)CC1,0.6 µg/mL
17,Cc1ccc(CN(Cc2ccco2)C(=S)Nc2ccccc2C)cc1,0.4 µg/mL
18,COc1ccc(CNC(=S)Nc2ccccc2)cc1Cl,31.7 µg/mL
19,O=C(Nc1nnc(CCN2CCCCC2)s1)c1ccccc1Cl,> 52.6 µg/mL
20,Cc1cccc(N2C(=O)CN(Cc3cccs3)C2=S)c1,4.6 µg/mL
21,CC(C)CNC(=O)CN1C(=O)NC2(CCc3ccccc32)C1=O (stereo not drawn),> 47.3 µg/mL
22,CCc1ccc(N2CC(C(=O)OCC(=O)NC3CC3)CC2=O)cc1 (stereo not drawn),> 49.6 µg/mL
23,CCc1ccc(C(C)NC(=S)NCc2ccc(F)cc2)cc1 (stereo not drawn),1 µg/mL
24,O=C(COc1ccccc1N1C(=O)C2C3C=CC(C3)C2C1=O)c1ccccc1 (stereo not drawn),> 56 µg/mL

row,Compound,solubility kinetic
1,O=C(O)/C=C\C(=O)Nc1ccc(F)c(F)c1F,34.3 µg/mL
2,Cc1ccnc(NC(=O)CNC(=O)c2cccs2)c1,> 41.3 µg/mL
3,CCOc1ccc(NS(=O)(=O)c2ccc3[nH]c(=O)[nH]c3c2)cc1,2 µg/mL
4,CC(=O)Nc1ccc(C(=O)COC(=O)Cc2ccsc2)c(F)c1,> 50.3 µg/mL
5,CC1CN=C(Nc2ccc(F)c(Cl)c2)S1 (stereo not drawn),17.3 µg/mL
6,O=C(CCc1nc(-c2ccccc2Cl)no1)NCc1ccco1,> 49.8 µg/mL
7,O=C(CN1C(=O)NC(Cc2c[nH]c3ccccc23)C1=O)Nc1ccccc1C(F)(F)F (stereo not drawn),> 64.6 µg/mL
8,CC(=O)Nc1ccc(N2CCN(c3ccc(F)cc3)CC2)cc1,0.7 µg/mL
9,CCCNC(=O)NC(=O)CN1CCCC1c1ccc2c(c1)OCCO2 (stereo not drawn),> 52.1 µg/mL
10,O=C(COC(=O)C1CC1)Nc1ccc2c(c1)OCO2,> 39.5 µg/mL
11,O=c1[nH]c2ccccc2nc1C(Nc1ccccc1)c1ccccc1 (stereo not drawn),< 0.2 µg/mL
12,O=C(Nc1ccc(F)cc1)c1ccccc1NC(=O)C1CC=CCC1C(=O)O (stereo not drawn),> 57.4 µg/mL
13,COc1ccccc1OCCNC(=O)C(c1ccccc1)c1ccccc1,2.2 µg/mL
14,CCOc1ccc(N2C(=O)CSC2=S)cc1,< 0.5 µg/mL
15,O=C(NCC1CCCCC1)c1cc([N+](=O)[O-])ccc1Cl,8 µg/mL
16,CC1=C(C(=O)Nc2ccc(C(=O)NCCC(C)C)cc2)SCCO1,46.3 µg/mL
17,COC(=O)c1cc(NC(=O)c2c(C)noc2C)ccc1N1CCOCC1,> 53.9 µg/mL
18,CCC(C)[C@H](NC(=O)NCc1ccc(Cl)cc1)C(=O)O (stereo partly drawn),> 44.8 µg/mL
19,CC1NC(=O)NC1CCCCCC(=O)Nc1ccc(F)c(Cl)c1 (stereo not drawn),> 51.3 µg/mL
20,CC(C)(C)OC(=O)N1CCCN(C(=O)Nc2ccccc2)CC1,46.3 µg/mL
21,CC(NC(=O)COC(=O)c1ccccc1F)C1CC2CCC1C2 (stereo not drawn),> 47.9 µg/mL
22,O=C(Cc1ccccc1)NCC1OCCc2ccccc21 (stereo not drawn),30.9 µg/mL
23,CC(C(=O)N1CCN(c2ccccc2F)CC1)c1ccc([N+](=O)[O-])cc1 (stereo not drawn),38.8 µg/mL
24,CC(C)N(CC#CC(O)(c1ccccc1)c1ccccc1)C(C)C,> 48.2 µg/mL

row,Compound,solubility kinetic
1,CCOC(=O)CC(NC(=O)c1ccccc1)c1ccc(OC)cc1 (stereo not drawn),36.4 µg/mL
2,Cc1ccc(-c2nc(C#N)c(NCC3CCCO3)o2)cc1 (stereo not drawn),37 µg/mL
3,CCCCOCCCNC(=O)N[C@H](C(=O)O)C(C)CC (stereo partly drawn),> 43.3 µg/mL
4,Cc1ccc(NC(=O)C(c2ccccc2)c2ccccc2)nc1,11.5 µg/mL
5,CCOC(=O)/C(C#N)=C/Nc1ccccc1OC(F)(F)F,1.2 µg/mL
6,CCC(C)c1ccc(S(=O)(=O)N2CCN(c3ccccn3)CC2)cc1 (stereo not drawn),< 0.3 µg/mL
7,CN1CCN(CC(=O)N2c3ccccc3Sc3ccccc32)CC1,> 50.9 µg/mL
8,CC(C)OP(=O)(OC(C)C)C(NC(=O)c1ccccc1)C(N)=O (stereo not drawn),> 51.3 µg/mL
9,O=C1/C(=C/c2cccc(O)c2)SC(=S)N1CC1CCCO1 (stereo not drawn),< 0.7 µg/mL
10,CCNC(=O)Nc1ccc(S(=O)(=O)Nc2cnc(C)nc2C)cc1,> 52.4 µg/mL
11,Cc1sc(NC(=O)C2=COCCO2)c(C#N)c1C,5.9 µg/mL
12,CCS(=O)c1ccccc1C(=O)OCC(=O)Nc1ccc2ccccc2c1 (stereo not drawn),45.8 µg/mL
13,CC(=O)Nc1cccc(C(=O)OCC(=O)c2ccccc2Cl)c1,43 µg/mL
14,COc1ccc(NC(=O)c2ccc(S(=O)(=O)C(F)F)cc2)c(OC)c1,13.1 µg/mL
15,O=C1Nc2ccc(F)cc2C12OCCO2,31.3 µg/mL
16,CC(C)(C)C(=O)NCCCNc1ccc([N+](=O)[O-])cc1,38.3 µg/mL
17,Cc1nc(N)sc1-c1csc(Nc2cccc(O)c2)n1,34.1 µg/mL
18,COc1ccc(/C=C/C(=O)O)cc1S(=O)(=O)N1CCc2ccccc21,> 53.9 µg/mL
19,CNC(=S)N(CCc1c(C)[nH]c2ccc(Cl)cc12)Cc1cccnc1,46.2 µg/mL
20,O=c1[nH]c2ccccc2n1C1=CCNCC1,> 32.3 µg/mL
21,O=C(NCCCN1CCOCC1)c1cc(Cl)ccc1Cl,41 µg/mL
22,C/C(Cl)=C/Cn1c(N2CCCC2)nc2c1c(=O)[nH]c(=O)n2C,45 µg/mL

# Source: PubChem BioAssay AID1996
